Experimental data from patent publication US20260294770A1, “FORMULATIONS OF NARINGENIN” (DEBUT BIOTECHNOLOGY, INC., priority 2023, published 2026).

What was measured:
KRT77 = experiment: Upregulation of gene expression and/or activity, 1% naringenin: KRT77
Source text: (§1) In certain embodiments, administration of a composition comprising naringenin leads to up-regulation of LCE5A, KRT77, ALOXE3, KRT1, HPGD, MUCL1, CASP14, WFDC12, KRT10, DNASE1L2, IL37, SERPINB12, HAL, UPK1A, CALML5, LCE2B, and/or MIR205. In certain embodiments, administration of a composition comprising naringenin leads to down-regulation of CCL11, CSF2, IL23A, IL11, BMP6, IL13RA2, C2CD4A, NR4A2, C2CD4B, FGF2, FARP4, GDF15, THBS1, HSPA1A, PTGS2, and/or DKK1. Tables 10 and 11 provide data for upregulation and downregulation respectively of certain genes after administration of compositions comprising 1% naringenin.
Kertain 77 (KRT77) is involved in production of keratin. In particular, KRT77 encodes an epithelial keratin that is expressed in the skin and eccrine sweat glands. KRT77 encodes keratin 77, a member of the type II keratin family of intermediate filament proteins. Keratin 77 is also known as KRT1B, Type II cytoskeletal 1b, Type IT keratin Kb39, and cytokeratin 1B. In certain embodiments, upregulation of expression and/or activity of KRT77, results in enhanced keratin production. The increased keratin production contributes to increase in the skin barrier strength. In certain embodiments, the administration of composition comprising naringenin results in at least about 5 to about 20-fold upregulation of expression and/or activity of KRT77. […]

[1] = biological target: T1, human neutrophil elastase (Homo sapiens, UniProt P08246); experiment: Elastase enzyme inhibition; type: biochemical
T1 sequence (P08246 30-267): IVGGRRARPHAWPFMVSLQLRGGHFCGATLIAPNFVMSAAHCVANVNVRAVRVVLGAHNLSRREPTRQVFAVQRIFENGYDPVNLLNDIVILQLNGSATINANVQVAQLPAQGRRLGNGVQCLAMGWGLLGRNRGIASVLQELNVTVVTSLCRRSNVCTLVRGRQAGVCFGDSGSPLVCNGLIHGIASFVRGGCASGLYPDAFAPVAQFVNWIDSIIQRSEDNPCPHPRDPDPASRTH
Description: The assay was conducted to evaluate the elastase enzyme inhibition activity of compositions comprising naringenin.
Neutrophil infiltration and neutrophil elastase are both increased in the skin in response to UV stress. […] Therefore, inhibition of this enzyme, particularly in combination with antioxidant activity, is effective in delaying wrinkle development and aiding in maintaining skin integrity. This assay is measures release of 4-nitroaniline from an Me-Suc-Ala-Ala-Pro-Val-pNA by human neutrophil elastase and can be quantified at 405 nm by comparing to solvent control.

LCE5A = experiment: Upregulation of gene expression and/or activity, 1% naringenin: LCE5A
Source text: as §1
Late cornified envelope protein 5A (LCE5A) is involved in formation of outer skin protective barrier. LCE5A may also be involved in keratinization. In certain embodiments, upregulation of expression and/or activity of LCE5A results in improved formation of the outer skin protective barrier. Thus, administration of compositions comprising naringenin, which leads to upregulation of LCE5A, results in increased skin barrier strength. In certain embodiments, the administration of composition comprising naringenin results in at least about 20 to about 50-fold upregulation of expression and/or activity of LCE5A. […]

HPGD = experiment: Upregulation of gene expression and/or activity, 1% naringenin: HPGD
Source text: as §1
Hydroxyprostaglandin dehydrogenase (HPGD) has an anti-inflammatory function. In particular, it is involved in degradation of molecules that lead to inflammatory signaling. For example, HPGD is involved in degradation of prostaglandin, which is involved in inflammatory signaling pathway. In certain embodiments, upregulation of expression and/or activity of HPGD leads to an anti-inflammatory effect. In certain embodiments, upregulation of HPGD leads to increase in degradation of signaling molecules that are involved in inflammation. Thus, the upregulation of HPGD leads to reduced inflammation. In certain embodiments, the administration of composition comprising naringenin results in at least about 5 to about 20-fold upregulation of expression and/or activity of HPGD. […]

mouse models = conditions: intraperitoneal; cited from earlier work
[2] = system: HaCaT immortalized keratinocytes; conditions: 10 μM; cited from earlier work
PTGS2 = experiment: Downregulation of gene expression and/or activity, 1% naringenin: PTGS2
Source text: as §1
Prostaglandin-endoperoxide synthase 2 (PTGS2) plays a role in the production of signaling molecules that are involved in the inflammatory response. For example, PTGS2 is involved in the conversion of arachidonic acid to prostaglandin H2, an important precursor of prostacyclin, which is expressed in inflammation. In certain embodiments, downregulation of PTGS2 leads to reduction in production of signaling molecules leading to inflammation. Thus, the downregulation of PTGS2 leads to reduced inflammation. In certain embodiments, the administration of composition comprising naringenin results in at least about 2 to about 10-fold downregulation of expression and/or activity of PTGS2. […]

LCE2B = experiment: Upregulation of gene expression and/or activity, 1% naringenin: LCE2B
Source text: as §1
Late cornified envelope 2B (LCE2B) plays a role in the formation of precursors of the cornified envelope of the stratum corneum. It also leads to improved formation of outer skin protective barrier. In certain embodiments, the administration of composition comprising naringenin results in upregulation of LCE2B, which has a role in enhancing the outer skin protective barrier. In certain embodiments, the administration of composition comprising naringenin results in at least about 5 to about 20-fold upregulation of expression and/or activity of LCE2B. In certain embodiments, the administration of composition comprising naringenin results in at least about five (5) fold upregulation of expression and/or activity of LCE2B.

O=C1C[C@@H](c2ccc(O)cc2)Oc2cc(O)cc(O)c21 [naringenin, (2S)-5,7-Dihydroxy-2-(4-hydroxyphenyl)-2,3-dihydro-4H-1-benzopyran-4-one]
Fold-increase in expression and/or activity of KRT77 (KRT77): ~12 fold | Lowest concentration inhibiting elastase [1]: ≤ 0.02 % w/w | inhibition at 0.02 % strength ([1]; 0.02 % w/w naringenin): 1.05% | inhibition at 0.1 % strength ([1]; 0.10 % w/w naringenin): 15.5% | inhibition at 0.5 % strength ([1]; 0.50 % w/w naringenin): 84% | IC50 elastase inhibition ([1]; role: inhibitor, substrate Me-Suc-Ala-Ala-Pro-Val-pNA, calculated): 0.159 % w/w | Fold-increase in expression and/or activity of LCE5A (LCE5A): ~33 fold | Fold-increase in expression and/or activity of HPGD (HPGD): ~10 fold | Cytokine production (mouse models): lowers cytokine production | Edema (mouse models): effectively inhibits edema | Symptoms associated with atopic dermatitis (mouse models): lowers symptoms associated with atopic dermatitis | UVB-induced skin damage (mouse models): inhibits UVB-induced skin damage | Protection from UVB-induced apoptosis [2]: protecting HaCaT immortalized keratinocytes from UVB-induced apoptosis | fold downregulation in expression and/or activity of PTGS2 (PTGS2): ~6 fold | Fold-increase (downregulation table) PTGS2 (PTGS2; negative = downregulation): −6 fold | Fold-increase in expression and/or activity of LCE2B (LCE2B): ~9 fold
